Consider 15 compounds from US20140187556A1, “ANTI-AMYLOID COMPOUNDS AND METHODS” (Treventis Corporation, priority 2011, published 2014).

A short description of series [1]: Metabolic stability in mouse liver microsomes. Type of series: in vitro ADME. Conditions: 1 μM compound, 0.5 mg/mL microsomal protein, 1 mM NADPH. The procedure:
This assay is used to determine the percent remaining and intrinsic clearance of a test compound incubated with pooled mouse liver microsomes in the presence of NADPH. Further details on this method may be found in Jeffrey P, et al., Utility of metabolic stability screening: comparison of in vitro and in vivo clearance. enobiotica. 2001 August-September; 31(8-9):591-8 and Lin J H, et al., Role of pharmacokinetics and metabolism in drug discovery and development. Pharmacol Rev. 1997; 49(4):403-49; each of which is hereby incorporated by reference. Test compound was formulated in 300 μL of DMSO at 10 mM and was diluted to 1 μM with final concentration of organic solvent <0.25% for the experiment. Pooled liver microsomes were prepared from male mice, with 1 mM NADPH. Test compound was incubated at 37 degrees Celsius in buffer containing 0.5 mg/mL microsomal protein; the reaction was initiated by adding cofactors and sampled at 0, 10, 20, 30, and 60 minutes. A positive control (5 μM testosterone) was incubated and initiated in parallel for quality control. Samples were analyzed using an LTQ-Orbitrap XL mass spectrometer; HRMS was used to determine the peak area response ratio (peak area corresponding to test compound or control divided by that of an analytical internal standard) without running a standard curve.
Results were reported for selected compounds in the table of Example 1, as % test compound remaining after 60 minutes. Compounds which have less than about 5% remaining are not considered to be metabolically stable in mouse liver microsomes, while compounds with more than about 5% remaining are considered to be metabolically stable in mouse liver microsomes.
Background: Liver microsomes are vesicles of endoplasmic reticulum, rich in cytochrome P450 enzymes.

Another series addresses T1, Aβ40 (Homo sapiens, UniProt P05067).
T1 construct: pre-treated Aβ40 (40 μM in 20 mM Tris, pH 7.4)
The series is described as follows: Thioflavin T (ThT) Aβ aggregation assay. Type of series: biochemical. Conditions: 20 μM Aβ40, 37 degrees C. The procedure:
Aβ40 (1.0 mg) was pre-treated in a 1.5 mL microfuge tube with HFIP (1 mL) and sonicated for 20 min to disassemble any pre-formed Aβ aggregates. The HFIP was removed with a stream of argon and the Aβ dissolved in Tris base (5.8 mL, 20 mM, pH ˜10). The pH was adjusted to 7.4 with concentrated HCl (−10 μL) and the solution filtered using a syringe filter (0.2 μm) before being used.
The kinetic ThT assay for Aβ aggregation is similar to that of Chalifour et al (Chalifour et al, 2003, J. Biol. Chem. 278:34874-81). Briefly, pre-treated Aβ40 (40 μM in 20 mM Tris, pH 7.4), was diluted with an equal volume of 8 μM ThT in Tris (20 mM, pH 7.4, 300 mM NaCl). Aliquots of Aβ/ThT (200 μL) were added to wells of a black polystyrene 96-well plate, followed by 2 μL of a compound in DMSO (variable concentration), or DMSO alone (controls). Incubations were performed in triplicate and were taken to contain 20 μM Aβ, various concentration of compound in 20 mM Tris, pH 7.4, 150 mM NaCl, 1% DMSO. Plates were covered with clear polystyrene lids and incubated at 37 degrees C. in a Tecan Genios microplate reader. Fluorescence readings (λex=450 nm, λem=480 nm) were taken every 15 min., after first shaking at high intensity for 15 s and allowing to settle for 10 s before each reading. Active compounds attenuated the increase in fluorescence over time that occurred in controls.

A further series addresses Tau441 (Homo sapiens, UniProt P10636). The series is described as follows: Thioflavin S (ThS) tau aggregation assay. Conditions: FIG. 1; for inhibition at 20 µM: 20 μM compound; for IC50: read-out: tau aggregation IC50 (suggested by inhibition at 20 μM). Type of series: biochemical. The method, then: Analogous to the method of Example 1, the ability of compounds to inhibit the aggregation of tau was performed by substituting […] with tau and Thioflavin T with Thioflavin S.

A short description of series [2]: Blood-brain barrier penetration potential using MDR1-MDCK cell monolayers. Type of series: in vitro ADME. Conditions: dog; for Papp A→B at 120 min, 5 µM: MDCK-MDR1, apical dosing, pH 7.4, read-out: Papp A-B × 10^−6 cm/s; for Papp B→A at 120 min, 5 µM: MDCK-MDR1, basolateral dosing, pH 7.4, read-out: Papp B-A × 10^−6 cm/s; for efflux ratio at 120 min, 5 µM: MDCK-MDR1, pH 7.4, read-out: Efflux ratio (Papp B-A)/(Papp A-B). The source says:
This assay is used to determine the blood-brain barrier (BBB) penetration potential of a test compound using MDR1-MDCK cell monolayers. Further details on this method may be found in Taub M E, et al., Functional assessment of multiple Pglycoprotein (P-gp) probe substrates: Influence of cell line and modulator concentration on P-gp activity. Drug Metab Dispos. 2005 November; 33(11): 1679-87 and Wang Q, et al., Evaluation of the MDR-MDCK cell line as a permeability screen for the blood-brain barrier. Int J. Pharm. 2005 Jan. 20; 288(2):349-59; each of which is hereby incorporated by reference. Test compound was formulated in 300 μL of DMSO at 10 mM and diluted to 5 μM in HBSSg with maximum DMSO concentration not greater than 1%. Confluent monolayers of MDR1-MDCK cells, 7 to 11 days old, were used. A receiver well, having apical and basolateral sides at pH 7.4, was used with 1% BSA in modified Hanks buffer (HBSSg). Two monolayers were dosed with test compound in each direction (N=2). Apical side dosing was used for A-B assessment and basolateral side was used for B-A assessment; taken together, this information provides a bidirectional permeability potential. Apical and basolateral sides were sampled at 120 minutes and concentrations of test compound were determined using an LC-MS/MS method with a minimum 4 point calibration curve. Apparent permeability (Papp) in both directions (A-B and B-A) was calculated, as was the efflux ratio (Papp B-A)/(Papp A-B).

Molecules are shown by their SMILES. Some results are limits rather than exact numbers.

Tau441, sequence (P10636 1-441 isoform P10636-8): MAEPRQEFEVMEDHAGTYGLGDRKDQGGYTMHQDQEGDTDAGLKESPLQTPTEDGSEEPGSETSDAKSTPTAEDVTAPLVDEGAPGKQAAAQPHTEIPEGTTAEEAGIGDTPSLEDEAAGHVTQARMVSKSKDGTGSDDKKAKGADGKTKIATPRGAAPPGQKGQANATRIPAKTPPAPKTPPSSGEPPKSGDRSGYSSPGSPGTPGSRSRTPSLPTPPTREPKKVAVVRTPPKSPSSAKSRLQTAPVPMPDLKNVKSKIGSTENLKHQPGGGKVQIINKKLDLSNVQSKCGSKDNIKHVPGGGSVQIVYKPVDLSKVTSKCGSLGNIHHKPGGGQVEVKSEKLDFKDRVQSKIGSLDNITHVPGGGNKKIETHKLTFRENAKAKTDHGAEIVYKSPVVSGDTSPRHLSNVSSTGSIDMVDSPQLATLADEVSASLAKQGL
T1 sequence (P05067 672-711 limits assumed): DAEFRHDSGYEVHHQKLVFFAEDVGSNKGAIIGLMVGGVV

Take `NS(=O)(=O)c1ccccc1-c1ccc([N+](=O)[O-])c(NCc2ccccc2)c1` [TRV 1121, 3′-(benzylamino)-4′-nitro-[1,1′-biphenyl]-2-sulfonamide]: the “Stability in mouse liver microsomes (% test compound remaining after 60 min)” value in series [1] is recorded as less than 1.0%. In addition, 24.6 ± 6.83 µM corresponded to half-maximal inhibition at Aβ40 (IC50).
Turning to `CCN(CC)C(=O)c1cccc(-c2ccc([N+](=O)[O-])c(NCc3ccccc3)c2)c1` [TRV 1110, 3′-(benzylamino)-N,N-diethyl-4′-nitrobiphenyl-3-carboxamide], in series [1], the “Stability in mouse liver microsomes (% test compound remaining after 60 min)” value was less than 1.0%. For the same compound, the half-inhibitory concentration (IC50) – broadly, the concentration that inhibits the measured activity by half – at Aβ40 is 0.7 ± 0.9 µM.
With `O=C(c1ccccc1)N1CCN(c2ccc(C(F)(F)F)c(N3CCCC3)c2)CC1` [TRV 1158, phenyl(4-(3-(pyrrolidin-1-yl)-4-(trifluoromethyl)phenyl)piperazin-1-yl)methanone], at Tau441, the inhibition – broadly, the percentage by which the read-out fell short of the control – at 20 µM is approximately 20% and the IC50 is more than 20 µM. On Aβ40, this compound gave a concentration for half-maximal inhibition (IC50) of 42.02 ± 0.12 µM.
For the compound `CC(C)N(C(=O)c1cccc(-c2ccc([N+](=O)[O-])c(NCc3ccccc3)c2)c1)C(C)C` [TRV 1112, 3′-(benzylamino)-N,N-diisopropyl-4′-nitrobiphenyl-3-carboxamide], the “Stability in mouse liver microsomes (% test compound remaining after 60 min)” value in series [1] is less than 1.0%. Also, the IC50 on Aβ40 amounted to 1.41 ± 1.11 µM.
`O=C(c1ccccc1)N1CCN(c2ccc([N+](=O)[O-])c(N3CCCC3)c2)CC1` [TRV 1141, (4-(4-nitro-3-(pyrrolidin-1-yl)phenyl)piperazin-1-yl)(phenyl)methanone]: the “Stability in mouse liver microsomes (% test compound remaining after 60 min)” value in series [1] was less than 1.0%. The compound further gave an IC50 against Aβ40 of approximately 10 µM.
As for `CN(C)C(=O)c1cccc(-c2ccc([N+](=O)[O-])c(NCc3ccccc3)c2)c1` [TRV 1102, 3′-(benzylamino)-N,N-dimethyl-4′-nitrobiphenyl-3-carboxamide], the “Stability in mouse liver microsomes (% test compound remaining after 60 min)” value in series [1] was less than 1.0%. At Aβ40, this compound showed an IC50 of 4.11 ± 1.2 µM.
For `O=C(c1ccccc1)N1CCN(c2ccc(F)c(Nc3ccccc3)c2)CC1` [TRV 1095, (4-(4-fluoro-3-(phenylamino)phenyl)piperazin-1-yl)(phenyl)methanone], in series [1], the “Stability in mouse liver microsomes (% test compound remaining after 60 min)” value is given as less than 1.0%. Further, on Tau441, the inhibition at 20 µM is approximately 20% and the half-maximal inhibitory concentration (IC50) is more than 20 µM. Besides, at Aβ40, half-maximal inhibition (IC50) was put at 15.9 ± 7.8 µM.
Consider `O=[N+]([O-])c1ccc(-c2ccc(-c3nn[nH]n3)cc2)cc1NCc1ccccc1` [TRV 1126, N-benzyl-4-nitro-4′-(2H-tetrazol-5-yl)-[1,1′-biphenyl]-3-amine], for which the “Stability in mouse liver microsomes (% test compound remaining after 60 min)” value in series [1] came out at 41%. Further, in series [2], the Papp A→B at 120 min, 5 µM was 34.1 ×10⁻⁶ cm/s; the Papp B→A at 120 min, 5 µM amounted to 47.8 ×10⁻⁶ cm/s; the efflux ratio at 120 min, 5 µM was 1.4. Besides, it took 1.1 ± 0.33 µM to reach half-maximal inhibition against Aβ40 (IC50).
Consider `O=C(c1cccc(-c2ccc([N+](=O)[O-])c(NCc3ccccc3)c2)c1)N1CCCCC1` [TRV 1111, (3′-(benzyl amino)-4′-nitrobiphenyl-3-yl)(piperidin-1-yl)methanone], for which, in series [1], the “Stability in mouse liver microsomes (% test compound remaining after 60 min)” value is recorded as less than 1.0%. On Aβ40, this compound had a half-maximal inhibitory concentration (IC50) of 0.33 ± 0.44 µM.
The corresponding values for `O=C(c1ccccc1)N1CCN(c2ccc([N+](=O)[O-])c(NC3CC3)c2)CC1` [TRV 1142, (4-(3-(cyclopropylamino)-4-nitrophenyl)piperazin-1-yl)(phenyl)methanone] are 1.7% and approximately 10 µM.
Regarding `CC(O)c1cccc(-c2ccc([N+](=O)[O-])c(NCc3ccccc3)c2)c1` (stereo not drawn) [TRV 1129, 1-(3′-(benzylamino)-4′-nitrobiphenyl-3-yl)ethanol], the “Stability in mouse liver microsomes (% test compound remaining after 60 min)” value in series [1] is less than 1.0%. Besides, the IC50 against Aβ40 stood at 6.49 ± 0.21 µM.
In the case of `CN1CCN(C(=O)c2cccc(-c3ccc([N+](=O)[O-])c(NCc4ccccc4)c3)c2)CC1` [TRV 1115, (3′-(benzyl amino)-4′-nitrobiphenyl-3-yl)(4-methylpiperazin-1-yl)methanone], the “Stability in mouse liver microsomes (% test compound remaining after 60 min)” value in series [1] is less than 1.0%. Half-maximal inhibition at Aβ40 (IC50) required 2.67 ± 0.1 µM.
With `O=C(c1cccc(-c2ccc([N+](=O)[O-])c(NCc3ccccc3)c2)c1)N1CCCC1` [TRV 1117, (3′-(benzylamino)-4′-nitrobiphenyl-3-yl)(pyrrolidin-1-yl)methanone], in series [1], the “Stability in mouse liver microsomes (% test compound remaining after 60 min)” value is on record as less than 1.0%. Also, half-maximal inhibition on Aβ40 (IC50) was put at 2.94 ± 1.64 µM.
`NS(=O)(=O)c1cccc(-c2ccc([N+](=O)[O-])c(NCc3ccccc3)c2)c1` [TRV 1122, 3′-(benzylamino)-4′-nitro-[1,1′-biphenyl]-3-sulfonamide]: the “Stability in mouse liver microsomes (% test compound remaining after 60 min)” value in series [1] is reported as 1.5%. Besides, in series [2], the Papp A→B at 120 min, 5 µM is 27.5 ×10⁻⁶ cm/s; the Papp B→A at 120 min, 5 µM worked out at 52.5 ×10⁻⁶ cm/s; the efflux ratio at 120 min, 5 µM turned out to be 1.9. Besides, on Aβ40, half-maximal inhibition (IC50) was put at 14.1 ± 3.07 µM.
Turning to `O=[N+]([O-])c1ccc(-c2cccc(CO)c2)cc1NCc1ccccc1` [TRV 1147], in series [1], the “Stability in mouse liver microsomes (% test compound remaining after 60 min)” value is recorded as less than 1.0%. Also, the IC50 against Aβ40 amounted to 3.54 ± 0.46 µM.
